Results taken from PubChem BioAssay (NCI).
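Compound exposure: 48 hours, 5 concentrations, 96-well plates. GI50 is the concentration that inhibits growth by half. The concentration for full growth arrest is given as TGI.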

Legend:
Assay in all cases: growth of human tumour cells (NCI), 48 h
RPMI-8226 leukemia = system: RPMI-8226 leukemia
A549 NSCLC = system: A549 NSCLC
786-0 renal = system: 786-0 renal
RXF 393 renal = system: RXF 393 renal
OVCAR-8 ovarian = system: OVCAR-8 ovarian
MALME-3M melanoma = system: MALME-3M melanoma
MCF7 breast = system: MCF7 breast
SNB-75 CNS = system: SNB-75 CNS

| SMILES | GI50 (RPMI-8226 leukemia) [µM] | TGI (RPMI-8226 leukemia) [µM] | GI50 (A549 NSCLC) [µM] | TGI (A549 NSCLC) [µM] | GI50 (786-0 renal) [µM] | TGI (786-0 renal) [µM] | GI50 (RXF 393 renal) [µM] | TGI (RXF 393 renal) [µM] | GI50 (OVCAR-8 ovarian) [µM] | TGI (OVCAR-8 ovarian) [µM] | GI50 (MALME-3M melanoma) [µM] | TGI (MALME-3M melanoma) [µM] | GI50 (MCF7 breast) [µM] | TGI (MCF7 breast) [µM] | GI50 (SNB-75 CNS) [µM] | TGI (SNB-75 CNS) [µM] |
| --- | --- | --- | --- | --- | --- | --- | --- | --- | --- | --- | --- | --- | --- | --- | --- | --- |
| COc1cc(-c2cc(/C=C/C(=O)c3ccc(F)c(F)c3)[nH]n2)cc(OC)c1OC | 1.76 | 6 | 2.43 | 9.9 | 3.35 | 15.7 | 2.05 | 6.34 | 2.88 | 17.3 | 2.96 | 9.4 | 3.2 | 12.3 | – | – |
| CC(C)(C)c1cc(C(=O)Nc2ccccc2C(=O)NCCN)cc(C(C)(C)C)c1 | – | – | 2.11 | 4.2 | 1.75 | 3.51 | 2.01 | 3.58 | 2.08 | 4.2 | 1.93 | 3.64 | 1.76 | 3.54 | 1.68 | 5.08 |
| CCN(CC)c1ccc(/C=C/C(=O)c2ccc(Nc3nc(Nc4ccccc4)nc(Nc4ccccc4)n3)cc2)cc1 | 3.26 | > 100 | 12.8 | 78.1 | 5.21 | 27.7 | 2.97 | 16.8 | 9.95 | > 100 | 9.52 | > 100 | 1.99 | 21.8 | 3.9 | 64.8 |
| COc1ccc(C(O)c2cc3c(N)c(C(=O)Nc4ccc(Cl)cc4)sc3nc2C)cc1 (stereo not drawn) | 2.22 | 9.32 | 3.53 | 14.9 | 8.2 | 31.8 | 2.25 | 11.6 | 4.02 | 26.7 | 2.04 | 18.9 | 0.707 | 17.2 | 1.88 | 7.25 |
| COc1cc(/C=C2\C(=O)N(Cc3ccc(Cl)cc3)c3ccccc32)cc(OC)c1OC | 0.645 | 2.39 | 4.27 | 19.2 | 3.37 | 14.9 | 2.35 | 4.95 | 3.4 | > 45.2 | 3.73 | 16.3 | 2.97 | > 61.7 | 5.31 | > 100 |
| N#CCn1c(=O)c(Oc2ccc(F)cc2F)cc2cnc(NC3CCOCC3)nc21 | > 25 | > 25 | > 25 | > 25 | > 25 | > 25 | > 17.9 | > 25 | > 25 | > 25 | > 22.5 | > 25 | > 25 | > 25 | > 25 | > 25 |
| O=C(Nc1ccc(Oc2ccc3nc(NC(=O)c4ccco4)[nH]c3c2)cc1)Nc1cc(C(F)(F)F)ccc1F | 2.17 | 10.6 | 3.19 | 11.8 | 3.55 | 10.4 | 1.28 | 5.13 | 1.26 | 6.92 | 0.699 | 5.31 | 2.94 | 15.6 | 2.39 | 10.2 |
